The results in this text go back to US9445594B2, “Molecules having certain pesticidal utilities, intermediates, compositions, and processes, related thereto” (priority 2014, dated 2016).

As a reminder, the mortality is the share of the test organisms that died.

Holding throughout (assay type): in vivo
Data set [1] relates to Cabbage Looper (Trichoplusia ni, TRIPNI) ("CL"). Description: Bioassays on CL, 128-well diet tray assay. Conditions: 168 h, second instar larvae, 50 μg/cm^2 on artificial diet, 25° C., five to seven days, average of eight wells, read-out: CL % Control (or Mortality) rating. A digest of the protocol: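 Second-instar larvae (one to five per well) on artificial diet surface-treated with 50 μg/cm^2 compound in 90:10 acetone-water, eight wells per treatment. Held at 25° C., 14:10 light-dark for five to seven days. Percent mortality scored per well and averaged over the eight wells.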

Data set [2] concerns Beet Armyworm (Spodoptera exigua, LAPHEG) ("BAW"). Description: Bioassays on BAW, 128-well diet tray assay. Particulars: 168 h, second instar larvae, 50 μg/cm^2 on artificial diet, 25° C., five to seven days, average of eight wells, read-out: BAW % Control (or Mortality) rating. The procedure, abridged: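 One to five second-instar larvae were placed per well on artificial diet surface-treated with 50 μg/cm^2 compound from 90:10 acetone-water, dried before infestation. Trays were held at 25 °C, 14:10 light-dark, for five to seven days. Percent mortality was averaged over eight wells.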

The test system of data set [3] is Corn Earworm (Helicoverpa zea, HELIZE) ("CEW"). Description: Bioassays on CEW, 128-well diet tray assay. Conditions: 168 h, second instar larvae, 50 μg/cm^2 on artificial diet, 25° C., five to seven days, average of eight wells, read-out: CEW % Control (or Mortality) rating. The method, then:
Certain molecules disclosed in this document were tested against BAW, CEW, and CL using procedures described in the following examples. In the reporting of the results, the “BAW, CEW, & CL Rating Table” was used (See Table Section).
Bioassays on CEW were conducted using a 128-well diet tray assay. one to five second instar CEW larvae were placed in each well (3 mL) of the diet tray that had been previously filled with 1 mL of artificial diet to which 50 μg/cm^2 of the test compound (dissolved in 50 μL of 90:10 acetone-water mixture) had been applied (to each of eight wells) and then allowed to dry. Trays were covered with a clear self-adhesive cover, and held at 25° C., 14:10 light-dark for five to seven days. Percent mortality was recorded for the larvae in each well; activity in the eight wells was then averaged. The results are indicated in the table entitled “Table ABC: Biological Results” (See Table Section). Bioassays on CL

Data set [4] concerns Yellow Fever Mosquito (Aedes aegypti, AEDSAE) ("YFM"). Description: Bioassays on YFM, 96-well plate larval assay. Particulars: about 1 day-old larvae, from 4000 ppm DMSO master plate diluted, room temperature, scored after 3 days. A digest of the protocol: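 Compounds from 4000 ppm DMSO master plates, diluted in 90:10 water:acetone, dispensed into 96-well plates, six replicates. About 1-day-old larvae added in liver-powder water. Wells covered, held 3 days at room temperature, then scored for mortality.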

Each structure is given as a SMILES string.

For `CC(C)n1cnnc1-c1ccccc1NC(=S)Nc1ccc(-c2ncn(-c3ccc(OC(F)(F)F)cc3)n2)cc1` [F48, 1-(2-(4-isopropyl-4H-1,2,4-triazol-3-yl)phenyl)-3-(4-(1-(4-(trifluoromethoxy)phenyl)-1H-1,2,4-triazol-3-yl)phenyl)thiourea], the mortality at 50 µg/cm2 in data set [1] is 50 to 100%; in data set [2], 50 to 100%; in data set [3] it was 0 to 50%. For the same compound, the “YFM % Control (or Mortality) rating” value in data set [4] is “A (80-100)”.
As to `Cc1ccc(C(C)C)c(NC(=O)Nc2ccc(-c3ncn(-c4ccc(OC(F)(F)C(F)(F)F)cc4)n3)cc2)c1` [F57, 1-(2-Isopropyl-5-methylphenyl)-3-(4-(1-(4-(perfluoroethoxy)phenyl)-1H-1,2,4-triazol-3-yl)phenyl)urea], the mortality at 50 µg/cm2 in data set [1], in data set [2] and in data set [3] was 50 to 100% in each case. Moreover, the “YFM % Control (or Mortality) rating” value in data set [4] is on record as “D (No activity noticed in this bioassay)”.
Turning to `Cc1ccc(C(C)C)c(NC(=S)NCCCc2ccc(-c3ncn(-c4ccc(OC(F)(F)F)cc4)n3)cc2)c1` [F29, 1-(2-isopropyl-5-methylphenyl)-3-(3-(4-(1-(4-(trifluoromethoxy)phenyl)-1H-1,2,4-triazol-3-yl)phenyl)propyl)thiourea], the mortality at 50 µg/cm2 in data set [1], in data set [2] and in data set [3] was 50 to 100% throughout. Moreover, the “YFM % Control (or Mortality) rating” value in data set [4] is reported as “A (80-100)”.
As for `CC(C)n1cnnc1-c1ccccc1NC(=O)Nc1ccc(-c2ncn(-c3ccc(OC(F)(F)F)cc3)n2)cc1` [F55, 1-(2-(4-Isopropyl-4H-1,2,4-triazol-3-yl)phenyl)-3-(4-(1-(4-(trifluoromethoxy)phenyl)-1H-1,2,4-triazol-3-yl)phenyl)urea], the mortality at 50 µg/cm2 in data set [1] was 50 to 100%; in data set [2], 50 to 100%; in data set [3], 0%. In addition, in data set [4], the “YFM % Control (or Mortality) rating” value is on record as “A (80-100)”.
`FC(F)(F)Oc1ccc(-n2cnc(-c3ccc(NC(=S)Nc4ccccc4Cc4ccccc4)cc3)n2)cc1` [F58, 1-(2-Benzylphenyl)-3-(4-(1-(4-(trifluoromethoxy)phenyl)-1H-1,2,4-triazol-3-yl)phenyl)thiourea]: the mortality at 50 µg/cm2 in data set [1], in data set [2] and in data set [3] was 50 to 100% throughout. Also, the “YFM % Control (or Mortality) rating” value in data set [4] is “D (No activity noticed in this bioassay)”.
On to `O=C(Nc1ccc(-c2ncn(-c3ccc(OC(F)(F)F)cc3)n2)cc1)Nc1ccccc1-c1ccco1` [F21, 1-(2-(Furan-2-yl)phenyl)-3-(4-(1-(4-(trifluoromethoxy)phenyl)-1H-1,2,4-triazol-3-yl)phenyl)urea], for which the mortality at 50 µg/cm2 in data set [1], in data set [2] and in data set [3] was 50 to 100% each time. Further, the “YFM % Control (or Mortality) rating” value in data set [4] was “D (No activity noticed in this bioassay)”.
On to `FC(F)(F)Oc1ccc(-n2cnc(-c3ccc(NC(=S)Nc4ccccc4-c4noc(C5CC5)n4)cc3)n2)cc1` [F23, 1-(2-(5-Cyclopropyl-1,2,4-oxadiazol-3-yl)phenyl)-3-(4-(1-(4-(trifluoromethoxy)phenyl)-1H-1,2,4-triazol-3-yl)phenyl)thiourea], for which the mortality at 50 µg/cm2 in data set [1], in data set [2] and in data set [3] was 50 to 100% throughout. In data set [4], the “YFM % Control (or Mortality) rating” value was “A (80-100)”.
On to `FC(F)(F)Oc1ccc(-n2cnc(-c3ccc(NC(=S)Nc4ccccc4-c4ccco4)cc3)n2)cc1` [F30, 1-(2-(Furan-2-yl)phenyl)-3-(4-(1-(4-(trifluoromethoxy)phenyl)-1H-1,2,4-triazol-3-yl)phenyl)thiourea], for which the mortality at 50 µg/cm2 in data set [1], in data set [2] and in data set [3] was 50 to 100% each time. Further, in data set [4], the “YFM % Control (or Mortality) rating” value is “A (80-100)”.
